Assay results reported in EP3553061A1, “NEW INHIBITORS OF BONE RESORPTION” (CENTRE NATIONAL DE LA RECHERCHE SCIENTIFIQUE (CNRS), priority 2018, dated 2019).
Several values for one entry are separate records, joined by “and”; a condition that tells them apart may be missing. Identical values can stand only once. Like-named read-outs stand apart in the source and are kept apart here. Values belong to the compound of their own block, whether it stands above or below them.

Molecular target: T1, human Dock5 (Homo sapiens, UniProt Q9H7D0)
T1 construct: plasmid expressing the catalytic DHR2 domain of mouse or human Dock5; expressed in transfected cells; host or cells: 293T cells
T1 sequence (Q9H7D0 1231-1642 limits assumed): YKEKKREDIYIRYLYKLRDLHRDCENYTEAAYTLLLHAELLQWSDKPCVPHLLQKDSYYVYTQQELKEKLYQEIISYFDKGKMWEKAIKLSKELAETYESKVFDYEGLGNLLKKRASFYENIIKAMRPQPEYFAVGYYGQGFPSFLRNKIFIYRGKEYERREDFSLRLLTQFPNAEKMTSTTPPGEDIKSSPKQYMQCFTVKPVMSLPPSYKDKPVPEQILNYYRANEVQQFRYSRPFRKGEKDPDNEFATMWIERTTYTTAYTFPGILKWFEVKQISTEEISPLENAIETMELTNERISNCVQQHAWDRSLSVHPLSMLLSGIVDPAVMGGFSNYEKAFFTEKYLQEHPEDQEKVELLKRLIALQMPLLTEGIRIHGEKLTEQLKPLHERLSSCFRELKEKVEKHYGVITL
Assay: Pull down assay of Rac activation by human Dock5 DHR2 in transfected 293T cells
Format: cell-based
Settings: for IC50: 1 hour treatment; for inhibition at 100 µM: read-out: Inhibition
Method: Compounds E73, E88 and E78 were tested for their inhibiting effect of the activation of Rac by mouse Dock5 of and for certain human Dock5 according to a screening test using a pull down assay as represented in Figure 1.
Methodology (Figure 1): cells 293T seeded onto 100 mm diameter plates in a DMEM culture medium containing 10% serum in an incubator in 5.5% CO2 humidified atmosphere at 37°C. When they reach the density of 5x10^6 cells per plate, cells are transfected with 8 µg of plasmid expressing the catalytic DHR2 domain of mouse or human Dock5 in order to activate endogenous GTPase Rac. After 24 hours, the cells are lifted using trypsin and are seeded 10^6 per well in 6-well plates of 35 mms in diameter. The following day, the cells are put in contact during one hour with the compound, in a mother solution at 20 mM into 100% DMSO, to a test concentration of 100 µM into 0.5% DMSO in the DMEM medium containing 0.1% of BSA. The basal activation of Rac by Dock5 is measured from the cells treated with 0.5% DMSO. After treatment, the cells are observed under the optical microscope to make sure of the absence of any toxic effect of the compound. If cell suffering is detected, the test is invalidated and the compound is retested at a lower dosage. The cells are then lysed in 100 µl of the pull down buffer (10% glycerol, 50 mm Tris pH 7.4, 100 mM NaCl, 1% IGEPAL® CA-630 (SIGMA I3021), 2 mM MgCl2 supplemented with proteases inhibitors) and the lysate is incubated during one hour with 20 µg of sepharose beads coupled with the fusion protein GST-PAK-CRIB, which binds specifically the activated form of GTPase Rac, which is bound to GTP. After centrifugation and washings, the proteins associated with the beads, including active Rac GTPase, are denatured and loaded on an SDS PAGE gel. […] For each compound tested, the level of active Rac GTPase is quantified using the Image J software and is normalized to the concentration of total protein in the whole cell lysate. The efficiency of the molecule is defined by the level of active Rac after treatment compared to the level of active Rac in the cells treated with DMSO (control). An activity is considered as inhibitory if the level of Rac activation decreases by at least 10%, 20%, in particular at least 30%, 40%, and preferably at least 50% compared to the control treated with DMSO (Table 1).
The same approach was used to test the potency of molecules of the 48ED family, on the activity of human Dock5 DHR2 (Table 2). Table 2: Inhibitory activity of the compounds of the 48ED family on human Dock5 activity.

[1] = HEK-293T, Table 3, human Dock5, at 50µM
[2] = Table 3, human Dock5, test concentration 100 µM, 1 hour, replicate values, 100 µM
[3] = HEK-293T, Table 3, human Dock5, test concentration 100 µM, 1 hour, replicate values
[4] = Table 2, human Dock5 DHR2, test concentration 100 µM, 1 hour, replicate values, Negative = Rac activation does not decrease, 100 µM
[5] = HEK-293T, Table 2, human Dock5 DHR2, test concentration 100 µM, 1 hour, replicate values, Negative = Rac activation does not decrease
[6] = Table 2, human Dock5 DHR2, test concentration 100 µM, 1 hour, replicate values, Negative = Rac activation does not decrease
[7] = Table 3, human Dock5, test concentration 100 µM, 1 hour, replicate values

Compound: O=S1(=O)N(c2ccccc2)C[C@H](O)[C@]12CCN(Cc1ccccc1Cl)C2 (racemic) [E196, rac-(4S,5R)-7-(2-chlorobenzyl)-4-hydroxy-2-phenyl-1-thia-2,7-diazaspiro[4.4]nonane 1,1-dioxide]
inhibition at 50 µM [1]: 40%
Inhibition [2]: 95% (2×) and 35%
IC50 (human Dock5): 35 µM

Compound: O=S1(=O)N(c2ccccc2)C[C@H](O)[C@]12CCN(Cc1ccccc1)C2 [E118]
Inhibition [4]: 85% (2×) and 60% and 55%

Compound: O=S1(=O)N(c2ccccc2)C[C@@H](O)[C@]12CCN(Cc1ccccc1)C2 [E119]
inhibition at 100 µM [5]: 25%

Compound: CN1C[C@H](O)[C@]2(CCN(Cc3ccccc3)C2)S1(=O)=O [E120]
Inhibition [6]: Negative

Compound: CN1C[C@@H](O)[C@]2(CCN(Cc3ccccc3)C2)S1(=O)=O [E121]
Inhibition [6]: Negative

Compound: O=S1(=O)N(c2ccccc2)C[C@H](O)[C@]12CCNC2 [E123]
inhibition at 100 µM [5]: 10%

Compound: CO[C@H]1CN(C)S(=O)(=O)[C@@]12CCN(Cc1ccccc1)C2 [E124]
Inhibition [6]: Negative

Compound: CO[C@@H]1CN(C)S(=O)(=O)[C@@]12CCN(Cc1ccccc1)C2 [E125]
Inhibition [6]: Negative

Compound: CN1C[C@H](Oc2ccccn2)[C@]2(CCN(Cc3ccccc3)C2)S1(=O)=O [E126]
inhibition at 100 µM [5]: 10%

Compound: O=S1(=O)N(c2ccccc2)C[C@H](O)[C@]12CCN(Cc1ccc(F)cc1)C2 [E127]
Inhibition [4]: 40% and 50% and 85% and 90%

Compound: O=S1(=O)N(c2ccccc2)C[C@H](O)[C@]12CCN(Cc1cccc(C(F)(F)F)c1)C2 [E128]
inhibition at 50 µM (HEK-293T, Table 2, human Dock5 DHR2, at 50µM): 70%
inhibition at 100 µM [5]: 90%

Compound: N#Cc1ccc(CN2CC[C@@]3(C2)[C@@H](O)CN(c2ccccc2)S3(=O)=O)cc1 [E129]
Inhibition [4]: 70% and 90% and 95%

Compound: CS(=O)(=O)c1ccc(CN2CC[C@@]3(C2)[C@@H](O)CN(c2ccccc2)S3(=O)=O)cc1 [E131]
Inhibition [4]: 50% and 70% and 90%

Compound: O=S1(=O)N(c2ccccc2)C[C@H](O)[C@]12CCN(Cc1ccc3ccccc3c1)C2 [E132]
inhibition at 10 µM (HEK-293T, Table 2, human Dock5 DHR2, at 10µM): 50%
inhibition at 100 µM [5]: 70%
Inhibition (Table 2, human Dock5 DHR2, at 10µM): 60%

Compound: CC(=O)N1CC[C@@]2(C1)[C@@H](O)CN(c1ccccc1)S2(=O)=O [E133]
inhibition at 100 µM [5]: 5%

Compound: O=C(CC1CCCC1)N1CC[C@@]2(C1)[C@@H](O)CN(c1ccccc1)S2(=O)=O [E135]
Inhibition [4]: 70% and 50% and 95%

Compound: Cc1cc(C(=O)N2CC[C@@]3(C2)[C@@H](O)CN(c2ccccc2)S3(=O)=O)no1 [E136]
inhibition at 100 µM [5]: 30%

Compound: O=C(c1ccccc1)N1CC[C@@]2(C1)[C@@H](O)CN(c1ccccc1)S2(=O)=O [E137]
Inhibition [4]: 70% and 40% and 15%

Compound: CS(=O)(=O)N1CC[C@@]2(C1)[C@@H](O)CN(c1ccccc1)S2(=O)=O [E138]
inhibition at 100 µM [5]: 30%

Compound: O=S1(=O)N(c2ccccc2)C[C@@H](O)[C@]12CCN(Cc1ccccc1F)C2 [E139]
Inhibition [4]: 60% and 10%

Compound: COC(=O)c1ccc(CN2CC[C@@]3(C2)[C@H](O)CN(c2ccccc2)S3(=O)=O)cc1 [E140]
inhibition at 100 µM [5]: 50%

Compound: O=S1(=O)N(c2ccccc2)C[C@H](O)[C@]12CCN(CC1CCCCC1)C2 [E198]
Inhibition [2]: 95% and 10% and 85%

Compound: Cc1noc(C)c1CN1CC[C@@]2(C1)[C@@H](O)CN(c1ccccc1)S2(=O)=O [E199]
inhibition at 100 µM [3]: 40%
Inhibition [7]: 40% / 40%

Compound: Cn1cc(CN2CC[C@@]3(C2)[C@@H](O)CN(c2ccccc2)S3(=O)=O)cn1 [E201]
Inhibition [2]: 60% and 10% (2×)

Other lines, results leading:

inhibition at 50 µM [1]: 95%
Inhibition (Table 3, human Dock5, at 50µM): 90%
IC50 (human Dock5): 22 µM
Compound: O=S1(=O)N(c2ccccc2)C[C@H](O)[C@]12CCN(Cc1cnc3ccccc3c1)C2 (racemic) [E203, rac-(4S,5R)-4-hydroxy-2-phenyl-7-(quinolin-3-ylmethyl)-1-thia-2,7-diazaspiro[4.4]nonane 1,1-dioxide]

inhibition at 50 µM [1]: 60%
inhibition at 100 µM [3]: 100%
Inhibition [2]: 95%
IC50 (human Dock5): 33 µM
Compound: Cn1cc(CN2CC[C@@]3(C2)[C@@H](O)CN(c2ccccc2)S3(=O)=O)c2ccccc21 (racemic) [E204, rac-(4S,5R)-4-hydroxy-7-((1-methyl-1H-indol-3-yl)methyl)-2-phenyl-1-thia-2,7-diazaspiro[4.4]nonane 1,1-dioxide]

inhibition at 50 µM [1]: 70%
inhibition at 100 µM [3]: 100%
IC50 (human Dock5): 43 µM
Compound: O=S1(=O)N(c2ccccc2)C[C@H](O)[C@]12CCN(Cc1cc3ccccc3o1)C2 (racemic) [E205, rac-(4S,5R)-7-(benzofuran-2-ylmethyl)-4-hydroxy-2-phenyl-1-thia-2,7-diazaspiro[4.4]nonane 1,1-dioxide]

inhibition at 50 µM [1]: 85%
IC50 (human Dock5): 32 µM
Compound: O=S1(=O)N(c2ccccc2)C[C@H](O)[C@]12CCN(Cc1ccc3c(c1)CCC3)C2 (racemic) [E210, rac-(4S,5R)-7-((2,3-dihydro-1H-inden-5-yl)methyl)-4-hydroxy-2-phenyl-1-thia-2,7-diazaspiro[4.4]nonane 1,1-dioxide]

inhibition at 50 µM [1]: 90%
IC50 (human Dock5): 44 µM
Compound: COc1ccc(CN2CC[C@@]3(C2)[C@@H](O)CN(c2ccccc2)S3(=O)=O)cc1F (racemic) [E211, rac-(4S,5R)-7-(3-fluoro-4-methoxybenzyl)-4-hydroxy-2-phenyl-1-thia-2,7-diazaspiro[4.4]nonane 1,1-dioxide]

Inhibition [2]: 50% and 100% and 70%
Compound: O=S1(=O)N(c2ccccc2)C[C@H](O)[C@]12CCN(Cc1ccc3c(c1)OCO3)C2 [E206]

inhibition at 100 µM [3]: 20%
Compound: O=S1(=O)N(c2ccccc2)C[C@H](O)[C@]12CCN(C1CCCCCC1)C2 [E207]

inhibition at 100 µM [3]: 35%
Compound: O=S1(=O)N(c2ccccc2)C[C@H](O)[C@]12CCN(Cc1cccs1)C2 [E208]

inhibition at 100 µM [3]: 35%
Compound: COc1cc(CN2CC[C@@]3(C2)[C@@H](O)CN(c2ccccc2)S3(=O)=O)cc(OC)c1 [E209]

inhibition at 100 µM [3]: 98%
Inhibition [2]: 100%
Compound: O=S1(=O)N(c2ccccc2)C[C@H](O)[C@]12CCN(Cc1ccc3[nH]ccc3c1)C2 [E212]

inhibition at 100 µM [3]: 90%
Inhibition [7]: 90%/ 90%
Compound: CN(C)c1ccc(CN2CC[C@@]3(C2)[C@@H](O)CN(c2ccccc2)S3(=O)=O)cc1 [E213]

Inhibition [2]: 90% and 50%
Compound: N#Cc1cccc(CN2CC[C@@]3(C2)[C@@H](O)CN(c2ccccc2)S3(=O)=O)c1 [E214]

inhibition at 100 µM [5]: 25%
Compound: O=S1(=O)N(c2ccccc2)C[C@H](O)[C@]12CCN(CCc1ccccc1)C2 [E217]

inhibition at 100 µM [3]: 20%
Compound: O=S1(=O)N(Cc2ccccc2)C[C@H](Oc2ccccn2)[C@]12CCN(Cc1ccccc1)C2 [E224]

inhibition at 100 µM [3]: 35%
Compound: CO[C@H]1CN(Cc2ccccc2)S(=O)(=O)[C@@]12CCN(Cc1ccccc1)C2 [E225]

inhibition at 50 µM [1]: 55%
IC50 (human Dock5): 20 µM
Compound: O=C1N(c2cccc(F)c2)CCC12CCN(Cc1cccc(Cl)c1)C2 (stereo not shown) [E226, 7-(3-chlorobenzyl)-2-(3-fluorophenyl)-2,7-diazaspiro[4.4]nonan-1-one]

Inhibition [2]: 90% and 50% and 60%
Compound: COc1ccc(N2CCC3(CCN(Cc4cccc(Cl)c4)C3)C2=O)cc1OC (stereo not shown) [E227]

inhibition at 50 µM [1]: 65%
IC50 (human Dock5): 8 µM
Compound: COc1ccc(N2CCC3(CCN(Cc4cccc(Cl)c4)C3)C2=O)cc1C (stereo not shown) [E228, 7-(3-chlorobenzyl)-2-(4-methoxy-3-methylphenyl)-2,7-diazaspiro[4.4]nonan-1-one]

inhibition at 50 µM [1]: 65%
Compound: O=S1(=O)N(c2ccccc2)C[C@H](OCCO)[C@]12CCN(Cc1ccccc1)C2 [E229]

Inhibition [2]: 80% and 45% and 30% and 70%
Compound: CNC(=O)CO[C@H]1CN(c2ccccc2)S(=O)(=O)[C@@]12CCN(Cc1ccccc1)C2 [E230]

inhibition at 50 µM [1]: 70%
Compound: CCOC(=O)CO[C@H]1CN(c2ccccc2)S(=O)(=O)[C@@]12CCN(Cc1ccccc1)C2 [E231]

Inhibition [2]: 40% (2×) and 10%
Compound: O=C(O)CO[C@H]1CN(c2ccccc2)S(=O)(=O)[C@@]12CCN(Cc1ccccc1)C2 [E232]

inhibition at 100 µM [3]: 70%
Inhibition [2]: 60%
Compound: O=S1(=O)N(C2CCCCC2)C[C@H](O)[C@]12CCN(Cc1ccccc1)C2 [E233]
